These results are taken from paper PMC8911944, “Screening of Natural Products Inhibitors of SARS-CoV-2 Entry” (Molecules, 2022).

In brackets after ≈: the same amount, converted by molar mass.

Tested on in the first data set: not listed separately
Put plainly: Cytotoxicity assay, resazurin method. The data set is classed as cell-based. The note with it: human, HEK293T-ACE2 cells, HEK-293T ACE2 cells, unit inferred. As for the experimental part:
(§1) The maximum non-toxic concentration was assessed using the resazurin method. Briefly, HEK293T-ACE2 cells were cultured at 1 × 10^4 cells/well in a 96-well plate in the presence of different concentrations of the natural products. Vehicle (DMSO)-treated cells were used as a control and normalizer. Resazurin was added 48 h later, and after 3 h, cell viability was determined. Absorbance was measured on the MultiskanTM GO (ThermoScientific, Waltham, MA, USA) at 570 and 630 nm. The MNTC is the maximum concentration with a cytotoxicity lower than 10%.
Broadly, the CC50 is the concentration giving 50% cytotoxicity. A higher CC50 goes with lower toxicity to the cells. The compound `C=C1CC/C=C(\C)CC[C@@H]2[C@@H]1CC2(C)C` [β-Caryophyllene] came in with a CC50 at 48 h of 183 µg/mL (≈ 896 µM).

The next data set has as its system HEK293T-ACE2 cells. Put plainly: Cytotoxicity assay, resazurin method. The class given is cell-based. The note with it: maximum concentration with cytotoxicity lower than 10%. As for the experimental part:
as §1
In general terms: Resazurin is reduced to fluorescent resorufin, in cell work by metabolically active cells.
`CC1=C[C@H](O)[C@H]2C[C@@H]1C2(C)C` (relative stereo) [cis-Verbenol]: the “MNTC (maximum non-toxic concentration)” value is given as 250 µg/mL.

For `C/C=C/[C@H]1OC(=O)C=C[C@H]1OC(C)=O` [Acetylphomolactone], the “MNTC (maximum non-toxic concentration)” value is reported as 4.5 µg/mL.

In the case of `CC(=O)OC1C=CC(=O)OC1C1OC1C` (centres unmarked) [Asperline], the “MNTC (maximum non-toxic concentration)” value is recorded as 7.81 µg/mL.

On to `CC(=O)C1COC(O)C1C` (centres unmarked) [Botryodiplodin], for which the “MNTC (maximum non-toxic concentration)” value was found to be 3 µg/mL.

On to `C=C1CC[C@H]2O[C@]2(C)CC[C@@H]2[C@@H]1CC2(C)C` [Caryophyllene Oxide], for which the “MNTC (maximum non-toxic concentration)” value came to 31.25 µg/mL.

Consider `C[C@H]1CC[C@@H](C(C)(C)O)CC2=C1CC[C@@H]2C` [Guaiol], for which the “MNTC (maximum non-toxic concentration)” value is recorded as 33.3 µg/mL.

Turning to `C=CC(C)(O)CCC=C(C)C` (centres unmarked) [Linalool], the “MNTC (maximum non-toxic concentration)” value is 125 µg/mL.

As for `CC(O)[C@@H]1NC(=O)c2cccn2C1=O` (some centres unmarked) [Macrophominol], the “MNTC (maximum non-toxic concentration)” value turned out to be 36 µg/mL.

For `C=C(C)[C@H]1CC=C(C)CC1` [R-Limonene], the “MNTC (maximum non-toxic concentration)” value is 31.25 µg/mL.

Regarding `C=C1CC/C=C(\C)CC[C@@H]2[C@@H]1CC2(C)C` [β-Caryophyllene], the “MNTC (maximum non-toxic concentration)” value amounted to 125 µg/mL.

Isoasperline: the “MNTC (maximum non-toxic concentration)” value is 7.19 µg/mL.

On to S-Limonene, for which the “MNTC (maximum non-toxic concentration)” value amounted to 31.25 µg/mL.

Another data set relates to pseudotyped virus carrying the vesicular stomatitis virus glycoprotein G (VSV-G).
Assay: not given
The data set is classed as cell-based.
Conditions: not given
With `C=C1CC/C=C(\C)CC[C@@H]2[C@@H]1CC2(C)C` [β-Caryophyllene], the “inhibitory activity against the entry of the VSV-G-pseudotyped virus” value was “low inhibitory activity”.
